Earlier results in patent US20100135908A1, “Delivery devices for modulating inflammation” (Searete LLC, a limited liability corporation of the state …, priority 2008, published 2010).

Columns and labels:
[1] = system: Src family kinase
[2] = system: Src family kinases (Src, Lck, Yes, Fyn); details: at nanomolar concentrations
[3] = mice
[4] = single agent, 400 mg infused over one hour
[5] = system: proteasome; details: cultured breast cancer cells; disulfiram bound to copper

**Q.** Which “inhibition of CpG-induced Src family kinase activation or its dependent cellular responses” value [1] does the source give for `CCN(CC)CCCC(C)Nc1ccnc2cc(Cl)ccc12` (centres unmarked) [chloroquine] here?
**A.** does not inhibit

**Q.** With `Cc1nc(Nc2ncc(C(=O)Nc3c(C)cccc3Cl)s2)cc(N2CCN(CCO)CC2)n1.O` [dasatinib, N-(2-chloro-6-methylphenyl)-2-[[6-[4-(2-hydroxyethyl)-1-piperazinyl]-2-methyl-4-pyrimidinyl]amino]-5-thiazolecarboxamide, monohydrate] as the molecule, how does the “inhibition of Src family kinases (Src, Lck, Yes, Fyn)” value [2] read?
**A.** inhibits

**Q.** Which “prevention of lethal septic shock” value [3] does the source give for `Cl.Cl.Nc1ccccc1Oc1ccc2c(N)nsc2c1` [Example M62812, 3-amino-6-(2-aminophenoxy)-1,2-benzisothiazole dihydrochloride] here?
**A.** prevents lethal septic shock

**Q.** Which “complications of intravenous infusion” value [4] does the source give for `CCN(CC)CCCC(C)Nc1ccnc2cc(Cl)ccc12.O=P(O)(O)O.O=P(O)(O)O` (centres unmarked) [chloroquine phosphate, 7-chloro-4-[[4-(diethylamino)-1-methylbutyl]amino]quinoline phosphate (1:2)] here?
**A.** without complication

**Q.** For `CCN(CC)C(=S)SSC(=S)N(CC)CC` [disulfiram, 1-(diethylthiocarbamoyldisulfanyl)-N,N-diethyl-methanethioamide], which proteasomal activity [5] is on record?
**A.** inhibits proteasomal activity
